For one test, the system named is ER (ERE). Description: ER antagonism (ERE). It is filed as cell-based. As to the method:
(§1) Example compounds were assayed to determine ER downregulation, relative binding affinity, and ER antagonism.

In test [1] the test system is tamoxifen-sensitive ER+ MCF-7:WS8 breast cancer cells. The test can be described thus: Growth inhibition in tamoxifen-sensitive ER+ MCF-7:WS8 breast cancer cells. The class given is cell-based. As to conditions: MCF7:WS8, MCF-7:WS8 cells; for IC50: assayed from 0.01 nM to 1 uM; for Emax: read-out: MCF7:WS8 Max efficacy (%).
A further test deals with T1, ER (Homo sapiens, UniProt P03372).
T1 construct: endogenous in cells
T1 sequence (P03372 1-595): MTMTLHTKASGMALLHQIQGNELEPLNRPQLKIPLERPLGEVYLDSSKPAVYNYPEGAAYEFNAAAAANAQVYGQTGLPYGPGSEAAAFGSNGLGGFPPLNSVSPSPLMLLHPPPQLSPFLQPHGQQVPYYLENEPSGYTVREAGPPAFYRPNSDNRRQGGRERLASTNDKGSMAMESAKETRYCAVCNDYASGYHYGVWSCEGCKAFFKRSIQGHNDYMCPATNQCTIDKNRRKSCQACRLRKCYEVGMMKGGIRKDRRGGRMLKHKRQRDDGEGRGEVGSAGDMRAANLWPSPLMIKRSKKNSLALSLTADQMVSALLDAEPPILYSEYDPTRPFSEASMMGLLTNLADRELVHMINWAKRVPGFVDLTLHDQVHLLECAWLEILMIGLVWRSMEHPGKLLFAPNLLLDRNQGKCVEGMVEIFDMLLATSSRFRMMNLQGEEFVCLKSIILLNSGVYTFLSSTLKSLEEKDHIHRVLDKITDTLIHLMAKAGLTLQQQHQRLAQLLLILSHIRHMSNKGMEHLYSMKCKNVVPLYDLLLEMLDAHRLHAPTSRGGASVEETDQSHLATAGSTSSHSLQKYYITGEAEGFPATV
The test can be described thus: Relative binding affinity (RBA). As to the method: as §1

The subject of test [2] is tamoxifen-resistant MCF-7:5C breast cancer cells. Description: Growth inhibition in tamoxifen-resistant MCF-7:5C breast cancer cells. It is filed as cell-based. As to conditions: MCF7:5C, MCF-7:5C cells; for IC50: assayed from 0.01 nM to 1 uM; for Emax: read-out: MCF7:5C Max efficacy (%).

SMILES strings stand for the structures. Bounds are passed on as bounds.

Broadly, the IC50 is the concentration that gives 50% inhibition. The low end stands for greater potency, the high end for weaker potency.

Consider `Cc1ccccc1C(=O)c1sc2cc(O)ccc2c1Oc1ccc(OC2CN(CCCF)C2)cc1` [Compound 20, (3-(4-((1-(3-fluoropropyl)azetidin-3-yl)oxy)phenoxy)-6-hydroxybenzo[b]thiophen-2-yl)(o-tolyl)methanone], for which the IC50 in the test with ER (ERE) is 5.3 ± 0.08 nM; in test [1], 0.04 ± 0.006 nM; in test [2] it was 4.9 ± 0.2 nM. Further, the Emax in test [1] turned out to be 75%; in test [2] it was 70%. Further, the “RBA (%)” value on ER was determined as 27.8 ± 8%.

As for `O=C(c1ccc(F)cc1)c1sc2cc(O)ccc2c1Oc1ccc(OCCN2CC(CF)C2)cc1` [Compound 61, (3-(4-(2-(3-(fluoromethyl)azetidin-1-yl)ethoxy)phenoxy)-6-hydroxybenzo[b]thiophen-2-yl)(4-fluorophenyl) methanone], the IC50 was 2.8 ± 0.1 nM in the test on ER (ERE), 1.3 ± 0.1 nM in test [1] and 0.58 ± 0.04 nM in test [2]. Further, the Emax in test [1] is 70%; in test [2] it was 55%. Further, the “RBA (%)” value at ER is listed as 9.15 ± 0.9%.

Take `Cc1ccccc1C(=O)c1sc2cc(O)ccc2c1Oc1ccc(OCCN2CCCCC2)cc1` [Compound 65, (6-hydroxy-3-(4-(2-(piperidin-1-yl)ethoxy)phenoxy)benzo[b]thiophen-2-yl)(o-tolyl)methanone]: the half-maximal inhibitory concentration (IC50) was 2.1 ± 0.06 nM with ER (ERE), 0.39 ± 0.05 nM in test [1] and more than 1000 nM in test [2]. In addition, the Emax in test [1] was 65%. Besides, the “RBA (%)” value on ER was 91.8 ± 6%.
